Results taken from BindingDB's records for patent US20250313563 (The Broad Institute, 2025).
“And” between values parts separate entries of the source, which are not always exact repeats. Identical values can stand only once.

Columns and labels:
[1] = molecular target: Glycogen synthase kinase-3 beta (Homo sapiens, UniProt P49841); assay: TR-FRET Assay
Summary of the method: (§1)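 TR-FRET readout: streptavidin-d2 (40 nM in added detection mix) plus Tb-anti-pSer641 Ab (2 nM in mix). Steps were 30 min compound preincubation, kinase reaction, then EDTA stop.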

[2] = molecular target: Glycogen synthase kinase-3 alpha (Homo sapiens, UniProt P49840); assay: TR-FRET Assay
Summary of the method: as §1

Chain of Glycogen synthase kinase-3 alpha (P49840 whole entry): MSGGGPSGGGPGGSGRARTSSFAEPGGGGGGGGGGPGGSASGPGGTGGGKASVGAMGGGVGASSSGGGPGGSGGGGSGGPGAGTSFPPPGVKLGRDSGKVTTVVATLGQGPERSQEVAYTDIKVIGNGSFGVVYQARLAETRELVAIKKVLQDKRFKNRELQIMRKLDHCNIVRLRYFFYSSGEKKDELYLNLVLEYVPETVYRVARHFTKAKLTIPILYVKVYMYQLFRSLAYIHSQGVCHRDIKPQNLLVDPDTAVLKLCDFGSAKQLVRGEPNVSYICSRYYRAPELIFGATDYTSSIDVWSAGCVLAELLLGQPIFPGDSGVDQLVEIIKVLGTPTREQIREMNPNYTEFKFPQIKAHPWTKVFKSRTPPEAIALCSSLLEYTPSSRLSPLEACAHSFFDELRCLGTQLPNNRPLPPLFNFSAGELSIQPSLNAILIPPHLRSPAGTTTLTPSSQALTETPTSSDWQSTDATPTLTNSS
Chain of Glycogen synthase kinase-3 beta (P49841 whole entry): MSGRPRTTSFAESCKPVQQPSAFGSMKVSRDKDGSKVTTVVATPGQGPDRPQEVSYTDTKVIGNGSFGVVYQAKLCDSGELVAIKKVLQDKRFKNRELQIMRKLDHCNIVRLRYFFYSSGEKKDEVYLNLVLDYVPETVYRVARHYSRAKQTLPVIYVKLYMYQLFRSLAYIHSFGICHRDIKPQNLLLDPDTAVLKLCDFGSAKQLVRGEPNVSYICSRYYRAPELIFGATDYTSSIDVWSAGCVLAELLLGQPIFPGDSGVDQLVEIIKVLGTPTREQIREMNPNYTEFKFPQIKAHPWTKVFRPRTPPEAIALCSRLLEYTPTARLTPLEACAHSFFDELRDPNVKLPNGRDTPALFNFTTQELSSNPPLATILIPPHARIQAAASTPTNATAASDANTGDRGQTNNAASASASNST

| Structure (SMILES) | IC50 [1] | IC50 [2] |
| --- | --- | --- |
| CCc1cc(-c2cccc(C3(CC)C4=CN=NC4NC4=C3C(=O)CC(C)(C)C4)c2)cc(CC)n1 (stereo not drawn) [US20250313563, Compound 929445] | > 5 µM | 1 to 5 µM |
| CC[C@@]1(c2cccc(C(F)(F)F)c2)C2=C(N=NC2)NC2=C1C(=O)N(Cc1ccccc1)[C@H]2C [US20250313563, Compound 930333] | > 5 µM | > 5 µM |
| CC[C@@]1(c2cccc(OC(C)C)c2)C2=C(CC(C)(C)CC2=O)NC2N=NC(C(F)(F)F)=C21 (stereo partly drawn) [US20250313563, Compound 947872] | 1 to 5 µM | 0.1 to 1 µM |
| CC(C)(C)CC1N=NC2=C1[C@](C)(c1ccccc1)C1=C(CC(C)(C)NC1=O)N2 (stereo partly drawn) [US20250313563, Compound 114531] | 1 to 5 µM | > 5 µM |
| CC[C@@]1(c2ccccc2)C2=CN=NC2NC2=C1C(=O)C[C@@H](C(F)(F)F)C2 (stereo partly drawn) [US20250313563, Compound 806609] | > 1.67 µM | 0.1 to 1 µM |
| CC[C@]1(c2cccc(-c3ccnn3C)c2)C2=C(CC(C)(C)CC2=O)NC2N=NC(C)=C21 (stereo partly drawn) [US20250313563, Compound 913046] | > 5 µM | 1 to 5 µM and > 5 µM |
| COC[C@H]1C[C@@]2(C1)C1=C(N=NC1)NC1=C2C(=O)CC(C)(C)C1 [US20250313563, Compound 912173] | 0.1 to 1 µM | 0.1 to 1 µM |
| CC[C@@]1(c2cccc(-c3cnn(C)c3)c2)C2=CN=NC2NC2=C1C(=O)CC(C)(C)[C@@H]2F (stereo partly drawn) [US20250313563, Compound 957511] | 0.1 to 1 µM and > 5 µM | < 0.1 µM and 0.1 to 1 µM |
| CC[C@]1(c2cccc(C(F)(F)F)c2)C2=C(CC(C)(C)CC2=O)NC2N=NC(C)=C21 (stereo partly drawn) [US20250313563, Compound 810368] | > 1.67 µM | 0.1 to 1 µM |
| CC[C@@]1(c2cccc(C(F)(F)F)c2)C2=CN=NC2NC2=C1C(=O)N(c1ccccc1)C2 (stereo partly drawn) [US20250313563, Compound 945377] | 1 to 5 µM | 0.1 to 1 µM |
| CC[C@]1(c2cccc(-c3cnn4c3CCCC4)c2)C2=CN=NC2NC2=C1C(=O)CC(C)(C)C2 (stereo partly drawn) [US20250313563, Compound 945543] | 1 to 5 µM | 0.1 to 1 µM |
| CC[C@@]1(c2ccccc2)C2=CN=NC2NC2=C1C(=O)C[C@](C)(COC)C2 (stereo partly drawn) [US20250313563, Compound 816873] | 1 to 5 µM | 0.1 to 1 µM |
| CC(C)(C)CC1=C2C(N=N1)NC1=C(C(=O)CC(C)(C)C1)[C@@]21CCc2cc(F)ccc21 (stereo partly drawn) [US20250313563, Compound 782425] | 0.1 to 1 µM | 0.1 to 1 µM |
| CC[C@]1(c2cccc(C(C)C)c2)C2=C(CC(C)(C)NC2=O)NC2N=NC(C)=C21 (stereo partly drawn) [US20250313563, Compound 949649] | < 0.1 µM and 1 to 5 µM | < 0.1 µM and 0.1 to 1 µM |
| CC[C@@]1(c2cccc(C(F)(F)F)c2)C2=CN=NC2NC2=C1C(=O)N(c1cc(C)n(C)n1)CC2 (stereo partly drawn) [US20250313563, Compound 951954] | > 5 µM | > 5 µM |
| CC[C@]1(c2ccccc2)C2=CN=NC2NC2=C1C(=O)C[C@]1(CCN(C)C1=O)C2 (stereo partly drawn) [US20250313563, Compound 949760] | > 5 µM | 0.1 to 1 µM |

Next, values leading:

| IC50 [1] | IC50 [2] | Structure (SMILES) |
| --- | --- | --- |
| < 0.1 µM | < 0.1 µM | CCC1(c2cccc(-c3ccnn3C(C)C)c2)C2=CN=NC2NC2=C1C(=O)CC(C)(C)C2 (stereo not drawn) [US20250313563, Compound 929399] |
| < 0.1 µM | < 0.1 µM | CC1(C)CC(=O)C2=C(C1)NC1=C(CN=N1)C21CCN(S(=O)(=O)c2c(F)cc(F)cc2F)CC1 [US20250313563, Compound 947484] |
| 0.1 to 1 µM | < 0.1 µM | CCC1(c2cccc(-c3ccnc(CO)c3)c2)C2=CN=NC2NC2=C1C(=O)CC(C)(C)C2 (stereo not drawn) [US20250313563, Compound 943540] |
| < 0.1 µM | < 0.1 µM | CCC1(c2cccc(N3CCOCC3)c2)C2=C(CC(C)(C)CC2=O)NC2N=NC(C)=C21 (stereo not drawn) [US20250313563, Compound 874312] |
| 0.1 to 1 µM | 0.1 to 1 µM | CC1(C)CC(=O)C2=C(C1)NC1=C(CN=N1)C21Cc2ccccc21 (stereo not drawn) [US20250313563, Compound 917226] |
| < 0.1 µM | < 0.1 µM | CC[C@@]1(c2cccc(NS(C)(=O)=O)c2)C2=CN=NC2NC2=C1C(=O)CC(C)(C)C2 (stereo partly drawn) [US20250313563, Compound 927348] |
| 0.1 to 1 µM | < 0.1 µM | CC1(C)CC(=O)C2=C(C1)NC1=C(CN=N1)[C@]21CCCN(S(=O)(=O)C2CC2)CC1 [US20250313563, Compound 932659] |
| < 0.1 µM | < 0.1 µM | CCC1(c2cccc(N(CCc3ccccc3)C(C)=O)c2)C2=CN=NC2NC2=C1C(=O)CC(C)(C)C2 (stereo not drawn) [US20250313563, Compound 912064] |
| < 0.1 µM and 0.1 to 1 µM | < 0.1 µM | CC[C@@]1(c2cccc(-c3cn(C)nc3C)c2)C2=CN=NC2NC2=C1C(=O)CC(C)(C)C2 (stereo partly drawn) [US20250313563, Compound 945546] |
| 0.1 to 1 µM | 0.1 to 1 µM | CC[C@@]1(c2cccc(Br)c2)C2=C(C[C@@H](C)CC2=O)NC2N=NC(C(F)(F)F)=C21 (stereo partly drawn) [US20250313563, Compound 828849] |
| < 0.1 µM | < 0.1 µM | CCC1(c2cccc(-c3c(C)cncc3C)c2)C2=CN=NC2NC2=C1C(=O)CC(C)(C)C2 (stereo not drawn) [US20250313563, Compound 945703] |
| 0.1 to 1 µM | < 0.1 µM | CCC1(c2cccc(C(F)(F)F)c2)C2=CN=NC2NC2=C1C(=O)N(c1ccc(OC)cc1)CC2 (stereo not drawn) [US20250313563, Compound 947332] |
| < 0.1 µM | < 0.1 µM | CC[C@@]1(c2cccc(-c3ccnc4ccccc34)c2)C2=CN=NC2NC2=C1C(=O)CC(C)(C)C2 (stereo partly drawn) [US20250313563, Compound 944031] |
| < 0.1 µM | < 0.1 µM | CCC1(c2cccc(Cl)c2)C2=C(CC(C)(C)CC2=O)NC2N=NC(C(F)(F)F)=C21 (stereo not drawn) [US20250313563, Compound 789566] |
| < 0.1 µM | < 0.1 µM | CCC1(c2cccc(-c3ccncc3C)c2)C2=C(CC(C)(C)CC2=O)NC2N=NC(C)=C21 (stereo not drawn) [US20250313563, Compound 883991] |
| 0.1 to 1 µM | < 0.1 µM | CCC1(c2cccc(-c3ccncc3)c2)C2=CN=NC2NC2=C1C(=O)CC(C)C2 (stereo not drawn) [US20250313563, Compound 856947] |
| < 0.1 µM | < 0.1 µM | CCC1(c2cccc(N(Cc3ccccc3)C(C)=O)c2)C2=CN=NC2NC2=C1C(=O)CC(C)(C)C2 (stereo not drawn) [US20250313563, Compound 884110] |
| < 0.1 µM | < 0.1 µM | CC1(C)CC(=O)C2=C(C1)NC1=C(CN=N1)C21COC2(CN(C(=O)C3(C)CCCC3)C2)C1 (stereo not drawn) [US20250313563, Compound 947307] |
| < 0.1 µM | < 0.1 µM | CCC1(c2cccc(-c3ccnn3C)c2)C2=C(CC(C)(C)CC2=O)NC2N=NC(C)=C21 (stereo not drawn) [US20250313563, Compound 883992] |
| < 0.1 µM | < 0.1 µM | Cc1ccc(S(=O)(=O)N2CCC3(CC2)C2=C(N=NC2)NC2=C3C(=O)CC(C)(C)C2)c(C)c1 [US20250313563, Compound 947468] |
| 0.1 to 1 µM | < 0.1 µM | CC1(C)CC(=O)C2=C(C1)NC1N=NC=C1[C@]21C[C@H](c2ccncc2)C1 (stereo partly drawn) [US20250313563, Compound 889664] |
| < 0.1 µM and 0.1 to 1 µM | < 0.1 µM | CC[C@]1(c2cccc(C(F)(F)F)c2)C2=C(NC3=NN=CC31)c1ccccc1C2=O (stereo partly drawn) [US20250313563, Compound 949743] |
| < 0.1 µM | < 0.1 µM | COCc1cccc(S(=O)(=O)N2CCC3(CC2)C2=C(N=NC2)NC2=C3C(=O)CC(C)(C)C2)c1 [US20250313563, Compound 947605] |
